Results taken from patent US4766148A, “Biphenylylpropionic acid derivative and pharmaceutical composition containing the same” (priority 1983, dated 1988).
Like-named read-outs stand apart in the source and are kept apart here.

Columns and labels:
[1] = tested on: carrageenan-induced edema; assay: Inhibitory effect on carrageenan-induced edema; type: in vivo, Wistar male rats; settings: Rattus norvegicus
Description: Five Wistar male rats weighing about 150 g. were used as one group. A 1% dispersion of carrageenan was injected intracutaneously into the foot pad of the right hind foot in a dose of 0.1 ml./rat. The compounds to be tested were orally administered to the rats fasted for 15 hours one hour before the carrageenan injection, or intravenously administered 2 hours […] the carrageenan injection. The volume of the foot subjected to the injection was measured by a mercury plethysmography 3 hours after the carrageenan injection on the test by oral route or 2 hours after the carrageenan injection on the test by intravenous route, and the carrageenan-induced edema was estimated from the obtained measurments.

[2] = Gastric ulceration (gastric irritation test); type: in vivo, Wistar male rats; settings: rat, in vivo, po
Description: (§1) Five Wistar male rats weighing about 150 g. were used as one group. The rats were fasted for 24 hours before the test.
(§2) Six hours after orally administration of the compounds to be tested, there was observed an existence of gastric ulcer by the method of Okabe et al (Ohyoyakuri, 16, 241 to 247 (1978)). The UD50 values were calculated from the ulcer incidence of gastric ulcer by the method of Litchfield-Wilcoxon.

[3] = in vivo; settings: mouse, po
Description: (§3) Eight male SLC-ddY mice 5 week old weighing 25 to 30 g. were used as one group. The compound to be tested was orally administered using a stomach tube. The animals were kept under observation for 2 weeks. The numbers of dead animals were counted and the LD50 values were calculated by the method of Litchfield Wilcoxon.

[4] = tested on: gastric ulcer; assay: Gastric ulceration (gastric irritation test); type: in vivo, Wistar male rats; settings: for UD50, gastric ulcer: Table 3, Wistar male rats, orally, six hours after administration, Litchfield-Wilcoxon; for UD50 (50% ulcerative dose): rat, in vivo, po
Description: as §1, §2

[5] = tested on: mice; assay: Acute toxicity; settings: 20160 min; for LD50: Table 5, male SLC-ddY mice, orally, 2 weeks observation, Litchfield Wilcoxon
Description: as §3

[6] = in vitro; settings: human, plasma
Description: Each reaction mixture was incubated at 37° C. for one hour
The free FP formed by esterase in the plasma was extracted with benzene. After treating the extract with N,O-bis(trimethylsilylacetamide) for trimethylsilylation, the obtained material was determined by gas-liquid chromatography.

[7] = Hydrolysis of FP derivatives in rat plasma; type: in vitro ADME; settings: Table 4; rat plasma (Compound No. 10), 37° C., one hour, amount corresponding to 50 μg. of FP per 1 ml.; read-out: Hydrolyzing rate
[8] = iv, 2 h, read-out: ED50, carrageenan-induced edema
[9] = iv, read-out: ED50 (50% effective dose), carrageenan-induced edema inhibition
[10] = po, read-out: ED50 (50% effective dose), carrageenan-induced edema inhibition
[11] = po, read-out: ED50, carrageenan-induced edema
[12] = Table 3, Wistar male rats, orally, six hours after administration, Litchfield-Wilcoxon, read-out: UD50, gastric ulcer
[13] = iv, Table 1, rats, i.v., read-out: ED50 (50% effective dose), carrageenan-induced edema inhibition
[14] = iv, Table 2, Wistar male rats, i.v. 2 hours after carrageenan, read-out: ED50, carrageenan-induced edema
[15] = po, Table 1, rats, p.o., read-out: ED50 (50% effective dose), carrageenan-induced edema inhibition
[16] = po, Table 2, Wistar male rats, p.o. one hour before carrageenan, measured 3 hours after carrageenan, read-out: ED50, carrageenan-induced edema

Row | Structure (SMILES) | ED50 [1, 8] | ED50 [1, 9] | ED50 [1, 10] | ED50 [1, 11] | TD50 at 6 h [2, 12] | LD50 at 336 h [3] | ED50 [1, 13] | ED50 [1, 14] | ED50 [1, 15] | ED50 [1, 16] | TD50 at 6 h [2] | further results
1 | CCC(OC(C)=O)OC(=O)C(C)c1ccc(-c2ccccc2)c(F)c1 (centres unmarked) [Compound 6, 1-(Acetoxy)propyl 2-(2-fluoro-4-biphenylyl)propionate] | 0.1 mg/kg | 0.1 mg/kg | 1.5 mg/kg | 1.5 mg/kg | 5 mg/kg | 900 mg/kg | – | – | – | – | – | –
2 | C/C=C/C(=O)OC(C)OC(=O)C(C)c1ccc(-c2ccccc2)c(F)c1 (centres unmarked) [Compound 7, 1-(crotonoyloxy)ethyl 2-(2-fluoro-4-biphenylyl)propionate] | 0.08 mg/kg | 0.08 mg/kg | 0.9 mg/kg | 0.9 mg/kg | 4 mg/kg | 800 mg/kg | – | – | – | – | – | –
3 | CC(OC(=O)C(C)C)OC(=O)C(C)c1ccc(-c2ccccc2)c(F)c1 (centres unmarked) [Compound 3, 1-(isobutyryloxy)ethyl 2-(2-fluoro-4-biphenylyl)propionate] | 0.1 mg/kg | 0.1 mg/kg | 1.5 mg/kg | 1.5 mg/kg | 5 mg/kg | 880 mg/kg | – | – | – | – | – | –
4 | COc1ccc2c(c1)c(CC(=O)O)c(C)n2C(=O)c1ccc(Cl)cc1 [indomethacin] | – | – | – | – | – | – | – | – | – | – | – | UD50, gastric ulcer ([4]; 360 min): 5.0 mg/kg; LD50 (50% lethal dose) ([5]; Table 1, mice, p.o.): 14.0 mg/kg; LD50 [5]: 14.0 mg/kg
5 | CC=CC=CC(=O)OC(C)OC(=O)C(C)c1ccc(-c2ccccc2)c(F)c1 (centres unmarked) [Compound 9, [1-(2,4-Hexadienoyloxy)ethyl]2-(2-fluoro-4-biphenylyl) propionate] | – | – | – | – | – | 1000 mg/kg | 0.3 mg/kg | 0.3 mg/kg | 2 mg/kg | 2 mg/kg | 7 mg/kg | metabolised at 1 h [6]: 20.4%
6 | CC(=O)OC(C)OC(=O)C(C)c1ccc(-c2ccccc2)c(F)c1 (centres unmarked) [Compound 1, 1-(Acetoxy)ethyl 2-(2-fluoro-4-biphenylyl)propionate] | 0.05 mg/kg | 0.05 mg/kg | 0.5 mg/kg | 0.5 mg/kg | 2.5 mg/kg | 650 mg/kg | – | – | – | – | – | –
7 | COc1ccc2c(c1)c(CC(=O)OCC(=O)O)c(C)n2C(=O)c1ccc(Cl)cc1 [acemethacin] | – | – | – | – | – | – | – | – | – | – | – | UD50 (50% ulcerative dose) ([4]; 360 min): 17.5 mg/kg; LD50 (50% lethal dose) ([5]; Table 1, mice, p.o.): 18.0 mg/kg; LD50 [5]: 18.0 mg/kg
8 | CC(C)=CC(=O)OC(C)OC(=O)C(C)c1ccc(-c2ccccc2)c(F)c1 (centres unmarked) [Compound 8, [1-(3,3-dimethylacryloyloxy)ethyl]2-(2-fluoro-4-biphenylyl)propionate] | – | – | – | – | – | 1000 mg/kg | 0.3 mg/kg | 0.3 mg/kg | 2.5 mg/kg | 2.5 mg/kg | 7 mg/kg | –
9 | CCC(=O)OC(C)OC(=O)C(C)c1ccc(-c2ccccc2)c(F)c1 (centres unmarked) [Compound 2, 1-(Propionyloxy)ethyl 2-(2-fluoro-4-biphenylyl)propionate] | 0.06 mg/kg | 0.06 mg/kg | 0.7 mg/kg | 0.7 mg/kg | 3 mg/kg | 800 mg/kg | – | – | – | – | – | –
10 | CC(C(=O)O)c1ccc(-c2ccccc2)c(F)c1 (centres unmarked) [FP, 2-(2-fluoro-4-biphenylyl)-propionic acid] | – | – | – | – | – | – | – | – | – | – | – | UD50, gastric ulcer ([4]; 360 min): 1.0 mg/kg; LD50 (50% lethal dose) ([5]; Table 1, mice, p.o.): 440 mg/kg; LD50 [5]: 440 mg/kg
11 | CC(C(=O)OC1C(=O)OCC1(C)C)c1ccc(-c2ccccc2)c(F)c1 (centres unmarked) [Compound 10, 3,3-Dimethyl-2-[2-(2-fluoro-4-biphenylyl)propionyloxy]-γ-butyrolactone] | 0.05 mg/kg | 0.05 mg/kg | 0.5 mg/kg | 0.5 mg/kg | 2.5 mg/kg | 670 mg/kg | – | – | – | – | – | metabolised at 1 h [7]: 72.3%
12 | CC(OC(=O)C(C)c1ccc(-c2ccccc2)c(F)c1)OC(=O)C(C)(C)C (centres unmarked) [Compound 4, 1-(pivaloyloxy)ethyl 2-(2-fluoro-4-biphenylyl)propionate] | – | – | – | – | – | > 1000 mg/kg | 0.6 mg/kg | 0.6 mg/kg | 2.5 mg/kg | 2.5 mg/kg | 10 mg/kg | LD50 (50% lethal dose) ([5]; mouse, in vivo, po): > 1000 mg/kg
13 | CCCCCCCCCCCCCCCC(=O)OC(C)OC(=O)C(C)c1ccc(-c2ccccc2)c(F)c1 (centres unmarked) [Compound 5, 1-(palmitoyloxy)ethyl 2-(2-fluoro-4-biphenylyl)propionate] | – | – | – | – | – | > 1000 mg/kg | > 5 mg/kg | > 5 mg/kg | > 5 mg/kg | > 5 mg/kg | > 10 mg/kg | UD50 (50% ulcerative dose) ([4]; 6 h): > 10.0 mg/kg; LD50 (50% lethal dose) ([5]; mouse, in vivo, po): > 1000 mg/kg
